This passage reports IC50 results from patent US20100292222A1, “CHEMICAL COMPOUNDS 751” (ASTRAZENECA AB, priority 2009, published 2010).

For this test, the target named is T1, Androgen Receptor (AR) (Homo sapiens, UniProt P10275, T878A).
T1 construct: cell based immuno-fluorescence assay using the LNCaP prostate epithelial cell line; host or cells: LNCaP clone FGC prostate carcinoma cells
T1 sequence (P10275 1-920 T878A): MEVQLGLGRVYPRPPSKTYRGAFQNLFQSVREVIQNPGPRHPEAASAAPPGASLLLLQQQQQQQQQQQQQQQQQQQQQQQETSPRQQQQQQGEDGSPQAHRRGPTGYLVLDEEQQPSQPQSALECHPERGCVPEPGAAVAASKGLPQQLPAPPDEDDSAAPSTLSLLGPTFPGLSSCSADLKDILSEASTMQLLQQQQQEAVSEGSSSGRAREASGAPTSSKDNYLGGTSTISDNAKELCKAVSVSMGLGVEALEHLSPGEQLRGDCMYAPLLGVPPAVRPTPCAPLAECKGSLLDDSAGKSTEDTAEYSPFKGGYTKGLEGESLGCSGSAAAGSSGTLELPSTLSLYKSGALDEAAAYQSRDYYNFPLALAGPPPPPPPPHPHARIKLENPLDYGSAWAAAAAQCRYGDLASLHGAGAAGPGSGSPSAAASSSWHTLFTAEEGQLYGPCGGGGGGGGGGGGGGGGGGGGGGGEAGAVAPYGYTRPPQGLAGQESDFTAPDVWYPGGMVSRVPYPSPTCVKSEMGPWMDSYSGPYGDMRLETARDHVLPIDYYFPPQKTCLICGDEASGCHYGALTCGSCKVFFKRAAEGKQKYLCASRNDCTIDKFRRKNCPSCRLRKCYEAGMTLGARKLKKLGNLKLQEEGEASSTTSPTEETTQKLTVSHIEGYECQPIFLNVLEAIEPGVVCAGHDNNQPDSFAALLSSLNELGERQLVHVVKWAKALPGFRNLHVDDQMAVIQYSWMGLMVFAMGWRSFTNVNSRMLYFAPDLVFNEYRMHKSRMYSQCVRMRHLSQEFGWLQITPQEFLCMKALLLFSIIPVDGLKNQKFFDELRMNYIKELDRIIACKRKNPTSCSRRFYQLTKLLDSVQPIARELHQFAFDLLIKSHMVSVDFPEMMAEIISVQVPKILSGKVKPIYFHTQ
Nature of the test: LNCaP Androgen Receptor Down-Regulation Cell Assay. The conditions noted are these: LNCaP prostate carcinoma cell line; 20-22 hours incubation; immunofluorescence; 50% reduction of the AR signal. In kind it is cell-based. The procedure: The ability of compounds to reduce Androgen Receptor (AR) numbers was assessed in a cell based immuno-fluorescence assay using the LNCaP prostate epithelial cell line.
This immunofluorescence end point assay measures the ability of a test compound to down-regulate and reduce measured levels of the AR in the LNCaP prostate carcinoma cell line (LNCaP clone FGC (CRL-1740) obtained from the American Type Culture Collection (ATCC)).
LNCaP cells were cultured in Growth Medium (phenol red free Roswell Park Memorial Institute (RPMI) 1640 (Invitrogen Code no. 11835-063) containing 2 mM L-Glutamine (Invitrogen Code no. 25030-024) and 1% (v/v) Penicillin/Streptomycin (10000 units/ml Penicillin and 10000 μg/ml of Streptomycin utilising penicillin G (sodium salt) and streptomycin sulphate: prepared in normal saline, Invitrogen Code no. 15140122) and 10% (v/v) foetal bovine serum (FBS)) in a 5% CO2 air incubator at 37° C. Cells for assay were harvested from T175 stock flasks by washing once in PBS (phosphate buffered saline, pH 7.4) (Invitrogen Code no. 14190-094) and harvested using 5 mls of 1× Trypsin/ethylaminediaminetetraacetic acid (EDTA) (10× Trypsin-EDTA, 5.0 g/L Trypsin, 2.0 g/L of EDTA•4Na and 8.5 g/L of NaCl, without Phenol Red, Invitrogen Code no. 15400-054) diluted in PBS solution. A 5 ml volume of Growth Medium was added to each flask (as above except that 5% (v/v) charcoal stripped FBS (HyClone Code no. SH30068.03) was included instead of 10% (v/v) FBS). Cells were syringed at least twice using a sterile 18G×1.5″ (1.2×40 mm) broad gauge needle and cell density was measured using a haemocytometer. Cells were further diluted in Growth Medium plus 5% (v/v) charcoal stripped FBS and seeded at a density of 6.5×10^3 cells per well (in 90 ul) into transparent, black, tissue culture treated 96 well plates (Packard, No. 6005182).
Test data reported herein was generated using two different compounds preparation and dosing methods. In method (1) a 10 mM compound stock solution in 100% (v/v) DMSO was serially diluted in 4-fold steps in 100% (v/v) DMSO using a Thermo Scientific Matrix SerialMate. The diluted compounds were then further diluted 1 in 30 in assay media using a Thermo Scientific Matrix PlateMate and a 10 μl aliquot of this dilution was dosed to cells manually using a multi-channel pipette. In method (2) starting with a 10 mM compound stock solution, the Labcyte Echo 550 was used to generate a compound concentration response set diluted in 30 μl of assay media. The Echo 550 is a liquid handler that uses acoustic technology to perform direct microplate-to-microplate transfers of DMSO compound solutions. The system can be programmed to transfer volumes as low as […] in multiple increments between microplates and in so doing generates a serial dilution of compound which is then back-filled to normalise the DMSO is concentration across the dilution range. A 10 μl volume of diluted compound is then dosed to cells using a Thermo Scientific Matrix PlateMate.
Plates were incubated overnight at 37° C., 5% CO2. Wells were then dosed with compound prepared by one of the 2 methods above and further incubated for 20-22 hours at 37° C., 5% CO2. Plates were fixed by the addition of 20 μl of 10% (v/v) formaldehyde solution (in PBS) to each well (final formaldehyde conc.=1.67% (v/v)) and left at room temperature for 10 mins. This fixative solution was removed and cells were washed with 250 μl of PBS/0.05% (v/v) Tween 20 (PBST) using an automated plate washer. This process was then repeated twice more.
Immunostaining was performed at room temperature. Cells were permeabilised by the addition of 35 μl of PBS containing 0.5% Tween 20 and incubated for 1 hour at room temperature. Permeabilisation solution was removed and cells were washed with 250 μl of PBST using an automated plate washer. This process was then repeated twice more. […]
Turning to `CC(=O)N1CCCN(CCOc2ccc(C3CCN(c4ccc5nnc(C(F)(F)F)n5n4)CC3)cc2)CC1` [Example 14, 6-(4-{4-[2-(4-acetyl-1,4-diazepan-1-yl)ethoxy]phenyl}piperidin-1-yl)-3-(trifluoromethyl)[1,2,4]-triazolo[4,3-b]pyridazine], the IC50 – broadly, the concentration needed to halve the response being measured – was 160 nM. To `CCN1CCN(CCCOc2ccc(C3CCN(c4ccc5nnc(C(F)(F)F)n5n4)CC3)cc2)CC1=O` [Example 15, 1-ethyl-4-[3-(4-{1-[3-(trifluoromethyl)[1,2,4]triazolo[4,3-b]pyridazin-6-yl]piperidin-4-yl}phenoxy)propyl]piperazin-2-one] belongs 240 nM; to `CC(C)N1CCN(CCCOc2ccc(C3CCN(c4ccc5nnc(C(F)(F)F)n5n4)CC3)cc2)CC1=O` [Example 16, 1-(1-methylethyl)-4-[3-(4-{1-[3-(trifluoromethyl)[1,2,4]triazolo[4,3-b]pyridazin-6-yl]piperidin-4-yl}phenoxy)propyl]piperazin-2-one], 610 nM; to `COCCN1CCN(CCCOc2ccc(C3CCN(c4ccc5nnc(C(F)(F)F)n5n4)CC3)cc2)CC1=O` [Example 17, 1-(2-methoxyethyl)-4-[3-(4-{1-[3-(trifluoromethyl)[1,2,4]triazolo[4,3-b]pyridazin-6-yl]piperidin-4-yl}phenoxy)propyl]piperazin-2-one], 530 nM. In the case of `CCN1CCN(CCOc2ccc(C3CCN(c4ccc5nnc(C(F)(F)F)n5n4)CC3)cc2)CC1=O` [Example 18, 1-ethyl-4-[2-(4-{1-[3-(trifluoromethyl)[1,2,4]triazolo[4,3-b]pyridazin-6-yl]piperidin-4-yl}phenoxy)ethyl]piperazin-2-one], the midpoint of inhibition, the IC50, lay at 310 nM. The result for `CC(C)N1CCN(CCOc2ccc(C3CCN(c4ccc5nnc(C(F)(F)F)n5n4)CC3)cc2)CC1=O` [Example 19, 1-(1-methylethyl)-4-[2-(4-{1-[3-(trifluoromethyl)[1,2,4]triazolo[4,3-b]pyridazin-6-yl]piperidin-4-yl}phenoxy)ethyl]piperazin-2-one] reads 710 nM; that for `COCCN1CCN(CCOc2ccc(C3CCN(c4ccc5nnc(C(F)(F)F)n5n4)CC3)cc2)CC1=O` [Example 20, 1-(2-methoxyethyl)-4-[2-(4-{1-[3-(trifluoromethyl)[1,2,4]triazolo[4,3-b]pyridazin-6-yl]piperidin-4-yl}phenoxy)ethyl]piperazin-2-one], 570 nM.

Consider `O=C(CO)N1CCN(CCOc2ccc(C3CCN(c4ccc5nnc(C(F)(F)F)n5n4)CC3)cc2)CC1` [Example 21, 2-oxo-2-{4-[2-(4-{1-[3-(trifluoromethyl)[1,2,4]triazolo[4,3-b]pyridazin-6-yl]piperidin-4-yl}phenoxy)ethyl]piperazin-1-yl]ethanol], for which the IC50 was 1800 nM. To `COCC(=O)N1CCN(CCOc2ccc(C3CCN(c4ccc5nnc(C(F)(F)F)n5n4)CC3)cc2)CC1` [Example 22, 6-[4-(4-{2-[4-(methoxyacetyl)piperazin-1-yl]ethoxy}phenyl)piperidin-1-yl]-3-(trifluoromethyl)[1,2,4]triazolo[4,3-b]pyridazine] belongs 1500 nM; to `C[C@H](O)C(=O)N1CCN(CCOc2ccc(C3CCN(c4ccc5nnc(C(F)(F)F)n5n4)CC3)cc2)CC1` [Example 23, (2S)-1-oxo-1-{4-[2-(4-{1-[3-(trifluoromethyl)[1,2,4]triazolo[4,3-b]pyridazin-6-yl]piperidin-4-yl}phenoxy)ethyl]piperazin-1-yl}propan-2-ol], 900 nM. `C[C@@H](O)C(=O)N1CCN(CCOc2ccc(C3CCN(c4ccc5nnc(C(F)(F)F)n5n4)CC3)cc2)CC1` [Example 24, (2R)-1-oxo-1-{4-[2-(4-{1-[3-(trifluoromethyl)[1,2,4]triazolo[4,3-b]pyridazin-6-yl]piperidin-4-yl}phenoxy)ethyl]piperazin-1-yl}propan-2-ol] yielded a 50% inhibitory concentration (IC50) of 1700 nM.

`CO[C@@H](C)C(=O)N1CCN(CCOc2ccc(C3CCN(c4ccc5nnc(C(F)(F)F)n5n4)CC3)cc2)CC1` [Example 25, 6-{4-[4-(2-{4-[(2S)-2-methoxypropanoyl]piperazin-1-yl}ethoxy)phenyl]piperidin-1-yl}-3-(trifluoromethyl)[1,2,4]triazolo[4,3-b]pyridazine] yielded a 50% inhibitory concentration (IC50) of 1200 nM. To `CC(=O)N1CCN(C[C@@H](C)Oc2ccc(C3CCN(c4ccc5nnc(C(F)(F)F)n5n4)CC3)cc2)CC1` [Example 26, 6-(4-{4-[(1R)-2-(4-acetylpiperazin-1-yl)-1-methylethoxy]phenyl}piperidin-1-yl)-3-(trifluoromethyl)[1,2,4]triazolo[4,3-b]pyridazine] belongs 160 nM; to `CC(=O)N1CCN(C[C@H](C)Oc2ccc(C3CCN(c4ccc5nnc(C(F)(F)F)n5n4)CC3)cc2)CC1` [Example 27, 6-(4-{4-[(1S)-2-(4-acetylpiperazin-1-yl)-1-methylethoxy]phenyl}piperidin-1-yl)-3-(trifluoromethyl) [1,2,4]triazolo[4,3-b]pyridazine], 880 nM; to `COC[C@H](CN1CCN(C(C)=O)CC1)Oc1ccc(C2CCN(c3ccc4nnc(C(F)(F)F)n4n3)CC2)cc1` [Example 28, 6-(4-{4-[(1S)-2-(4-acetylpiperazin-1-yl)-1-(methoxymethyl)ethoxy]phenyl}piperidin-1-yl)-3-(trifluoromethyl)[1,2,4]triazolo[4,3-b]pyridazine], 400 nM. The molecule `COC[C@@H](CN1CCN(C(C)=O)CC1)Oc1ccc(C2CCN(c3ccc4nnc(C(F)(F)F)n4n3)CC2)cc1` [Example 29, 6-(4-{4-[(1R)-2-(4-acetylpiperazin-1-yl)-1-(methoxymethyl)ethoxy]phenyl}piperidin-1-yl)-3-(trifluoromethyl)[1,2,4]triazolo[4,3-b]pyridazine] gave a half-inhibitory concentration (IC50) of 490 nM. The result for `CC(=O)N1CCN(CCOc2ccc(C3(O)CCN(c4ccc5nnc(C(F)(F)F)n5n4)CC3)c(C)c2)CC1` [Example 30, 4-{4-[2-(4-acetylpiperazin-1-yl)ethoxy]-2-methylphenyl}-1-[3-(trifluoromethyl)[1,2,4]-triazolo[4,3-b]pyridazin-6-yl]piperidin-4-ol] reads 210 nM.
